What is called % Inhibition is the change of the read-out against control, counted positive when it falls. Low readings indicate little suppression, high ones strong suppression.

Strand notation (5' to 3'): a small letter for the sugar, then the base; units joined by * are phosphorothioate-linked, units joined directly phosphodiester-linked; [ ] holds rarer units or linkages, { } end groups; capitals alone tell only the bases. e = 2'-O-(2-methoxyethyl) (MOE); [5mC] = 5-methylcytosine; d = 2'-deoxy (DNA)

The test system of the first data set is human Factor 7 mRNA. The data set is described as follows: Antisense inhibition of human Factor 7 mRNA in HepB3 cells, 50 nM antisense oligonucleotide, lipofectin. The conditions noted are these: Table 1, 50 nM, lipofectin, approximately 24 hours, relative to untreated control cells. The class given is cell-based. In outline:
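Seeding density was 4,000 cells per well. Following roughly 24 hours of oligonucleotide treatment, RNA was extracted and Factor 7 message quantified using the RTS 2927 primer probe set. Levels were corrected for RIBOGREEN® total RNA and expressed against untreated controls.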
On to “407891 (antisense e[5mC]*eA*eT*eG*eG*dA*d[5mC]*dT*dT*dG*dA*dG*dG*d[5mC]*dA*e[5mC]*eA*e[5mC]*eT*eG) [compound 407891]”, for which the “% Inhibition” value came to 66%.
Consider “407649 (antisense eG*eA*eG*eG*eG*dT*dT*d[5mC]*dA*dT*dT*dT*d[5mC]*dA*dG*eT*eG*eA*eT*eG) [compound 407649]”, for which the “% Inhibition” value came out at 24%.
With “407642 (antisense e[5mC]*eA*eG*e[5mC]*eA*dG*d[5mC]*d[5mC]*dT*dG*dA*dG*dG*d[5mC]*d[5mC]*eA*eG*e[5mC]*eA*eG) [compound 407642]”, the “% Inhibition” value was found to be 78%.
For the substance “407912 (antisense e[5mC]*e[5mC]*e[5mC]*eG*eG*dT*dA*dG*dT*dG*dG*dG*dT*dG*dG*e[5mC]*eA*eT*eG*eT) [compound 407912]”, the “% Inhibition” value worked out at 46%.
Turning to “407890 (antisense e[5mC]*eA*eG*eG*eG*dA*dG*d[5mC]*d[5mC]*d[5mC]*dG*dG*d[5mC]*d[5mC]*dG*e[5mC]*eA*eG*e[5mC]*eT) [compound 407890]”, the “% Inhibition” value was 60%.
The same measure, in the same setting: then “407616 (antisense eT*eG*e[5mC]*eA*eG*dG*dA*d[5mC]*dA*d[5mC]*d[5mC]*d[5mC]*d[5mC]*dG*dT*e[5mC]*eT*eG*e[5mC]*e[5mC]) [compound 407616]”, with 64%; and “407625 (antisense eT*eT*eG*eT*e[5mC]*dG*dA*dA*dA*d[5mC]*dA*dG*dT*dG*dG*eG*e[5mC]*e[5mC]*eG*e[5mC]) [compound 407625]”, with 100%.
In the case of “407904 (antisense eG*eA*eA*eA*e[5mC]*dA*dG*dT*dG*dG*dG*d[5mC]*d[5mC]*dG*d[5mC]*eG*eG*eA*eG*eA) [compound 407904]”, the “% Inhibition” value stood at 83%.
On the same count and under the same terms, then “407889 (antisense eT*e[5mC]*e[5mC]*eT*eG*dG*dG*dT*dT*dA*d[5mC]*dG*dA*dA*dG*eA*e[5mC]*eT*eG*e[5mC]) [compound 407889]”, with 54%.
Regarding “407915 (antisense eG*eT*eT*eG*e[5mC]*dG*d[5mC]*dA*dG*d[5mC]*d[5mC]*d[5mC]*dT*dG*dG*e[5mC]*e[5mC]*e[5mC]*e[5mC]*eA) [compound 407915]”, the “% Inhibition” value turned out to be 83%.
With “407914 (antisense e[5mC]*e[5mC]*eA*eG*e[5mC]*dT*dG*dA*d[5mC]*dG*dA*dT*dG*d[5mC]*d[5mC]*e[5mC]*eG*eT*e[5mC]*eA) [compound 407914]”, the “% Inhibition” value is on record as 82%.
With “407905 (antisense e[5mC]*e[5mC]*eA*eG*eT*dT*d[5mC]*dT*dT*dG*dA*dT*dT*dT*dT*eG*eT*e[5mC]*eG*eA) [compound 407905]”, the “% Inhibition” value was found to be 40%.
Regarding “407640 (antisense eG*e[5mC]*eA*eT*eG*dA*dG*d[5mC]*dT*dT*dT*dT*dG*d[5mC]*dA*eG*e[5mC]*e[5mC]*eA*e[5mC]) [compound 407640]”, the “% Inhibition” value was 79%.

The data set is the same for the next values; noted with them: Table 6, 50 nM, lipofectin, approximately 24 hours.
Turning to “422126 (antisense eA*e[5mC]*eT*eG*eA*dG*d[5mC]*dG*d[5mC]*dG*dG*dA*dA*dG*dA*eA*eG*eG*eG*eA) [compound 422126]”, the “% Inhibition” value is given as 22%.

The same data set, now with this note: gapmers targeted to nucleobases 4868 to 4899 of SEQ ID NO: 1, Table 8.
As to “422225 (antisense eA*eG*eG*dA*dG*d[5mC]*d[5mC]*d[5mC]*dG*dA*dG*dT*dT*d[5mC]*dT*dG*d[5mC]*eA*eG*eG) [compound 422225]”, the “% Inhibition of human Factor 7 mRNA levels” value amounted to 56%.
On the same count and under the same terms, the figure for “422302 (antisense eA*eG*dG*dA*dG*d[5mC]*d[5mC]*d[5mC]*dG*dA*dG*dT*dT*d[5mC]*dT*eG*e[5mC]*eA*eG*eG) [compound 422302]” is 67%; for “422297 (antisense e[5mC]*e[5mC]*d[5mC]*dG*dA*dG*dT*dT*d[5mC]*dT*dG*d[5mC]*dA*dG*dG*eA*eG*e[5mC]*eG*eG) [compound 422297]” it is 63%; for “422144 (antisense e[5mC]*e[5mC]*e[5mC]*eG*eA*dG*dT*dT*d[5mC]*dT*dG*d[5mC]*dA*dG*dG*eA*eG*e[5mC]*eG*eG) [compound 422144]” it is 58%.

Staying with this data set, now noted: lipofectin, 50 nM antisense oligonucleotide, approximately 24 hours, Factor 7 mRNA by real-time RT-PCR (RTS 2927), relative to untreated control.
Take “416479 (antisense eG*eA*e[5mC]*eA*eG*d[5mC]*dA*d[5mC]*dA*d[5mC]*dA*dT*dG*dG*dA*eG*eT*e[5mC]*eA*eG) [compound 416479]”: the “% Inhibition” value came out at 56%.
Regarding “416483 (antisense eT*eG*eT*eG*eA*dG*dG*dG*dT*dT*d[5mC]*dA*dT*dT*dT*e[5mC]*eA*eG*eT*eG) [compound 416483]”, the “% Inhibition” value was determined as 22%.
For the substance “416519 (antisense eA*eA*eA*eT*eA*dT*dG*dG*dG*dA*d[5mC]*d[5mC]*d[5mC]*dA*dA*eA*eG*eT*eG*eG) [compound 416519]”, the “% Inhibition” value turned out to be 9%.
Consider “416447 (antisense e[5mC]*eA*eT*eG*eG*dA*dT*dA*dT*dT*d[5mC]*dA*dA*d[5mC]*dT*eG*eT*eG*eG*eG) [compound 416447]”, for which the “% Inhibition” value stood at 17%.
The same measure, in the same setting: then “416541 (antisense e[5mC]*e[5mC]*eA*e[5mC]*e[5mC]*d[5mC]*dT*dT*dG*dG*dT*dG*d[5mC]*d[5mC]*d[5mC]*eA*eG*eA*eT*e[5mC]) [compound 416541]”, with 53%.
In the case of “416522 (antisense eG*eG*e[5mC]*eT*eG*dA*dG*dA*dA*dT*dT*dG*d[5mC]*d[5mC]*d[5mC]*eA*eG*eG*eG*e[5mC]) [compound 416522]”, the “% Inhibition” value stood at 25%.
On the same count and under the same terms, the figure for “416535 (antisense eG*e[5mC]*eA*eG*eG*dA*dT*dG*d[5mC]*dA*d[5mC]*dA*d[5mC]*d[5mC]*dA*eG*eG*eG*e[5mC]*eT) [compound 416535]” is 47%.
On the same count and under the same terms, the figure for “416443 (antisense eG*eA*eG*eG*e[5mC]*dA*dG*dA*dA*dG*d[5mC]*dA*dG*dA*dT*eA*eT*eA*eG*eG) [compound 416443]” is 17%; for “416554 (antisense eA*eA*eA*eG*eA*dT*d[5mC]*d[5mC]*d[5mC]*dA*d[5mC]*d[5mC]*dT*d[5mC]*dA*eA*eA*eG*eA*eG) [compound 416554]” it is 7%.

Still in this data set, the particulars now being: oligonucleotides targeted to nucleobases 11830 to 11869 of SEQ ID NO: 1 (Table 9).
Regarding “422106 (antisense e[5mC]*eT*eG*eG*e[5mC]*dT*dG*dA*dG*dG*dA*dG*dA*d[5mC]*dA*eA*eT*eG*eG*eT) [compound 422106]”, the “% Inhibition (human Factor 7 mRNA levels)” value is recorded as 32%.
Still for that read-out and setting: the figure for “422239 (antisense eG*eA*d[5mC]*dA*dA*dT*dG*dG*dT*d[5mC]*dA*dG*dG*dG*d[5mC]*eT*eG*eG*eT*eT) [compound 422239]” is 67%; for “422244 (antisense eG*eA*dG*dG*dA*dG*dA*d[5mC]*dA*dA*dT*dG*dG*dT*d[5mC]*eA*eG*eG*eG*e[5mC]) [compound 422244]” it is 55%.
On the same count and under the same terms, then “422231 (antisense eT*e[5mC]*dA*dG*dG*dG*d[5mC]*dT*dG*dG*dT*dT*dT*dT*dG*eG*eA*eG*eG*eA) [compound 422231]”, with 22%; and “422161 (antisense eA*e[5mC]*eA*dA*dT*dG*dG*dT*d[5mC]*dA*dG*dG*dG*d[5mC]*dT*dG*dG*eT*eT*eT) [compound 422161]”, with 53%.

Staying with this data set, now noted: oligonucleotides targeted to nucleobases 13760 to 13789 of SEQ ID NO: 1 (Table 10).
Regarding “422256 (antisense e[5mC]*eA*d[5mC]*d[5mC]*d[5mC]*dG*d[5mC]*d[5mC]*dG*dG*d[5mC]*dT*d[5mC]*dT*dG*e[5mC]*eT*e[5mC]*eA*eT) [compound 422256]”, the “% Inhibition (human Factor 7 mRNA levels)” value is 29%.
Same read-out and setting: the figure for “422259 (antisense e[5mC]*eG*d[5mC]*d[5mC]*dA*d[5mC]*d[5mC]*d[5mC]*dG*d[5mC]*d[5mC]*dG*dG*d[5mC]*dT*e[5mC]*eT*eG*e[5mC]*eT) [compound 422259]” is 61%; for “422175 (antisense e[5mC]*eG*e[5mC]*d[5mC]*dG*dG*d[5mC]*dT*d[5mC]*dT*dG*d[5mC]*dT*d[5mC]*dA*dT*d[5mC]*e[5mC]*e[5mC]*e[5mC]) [compound 422175]” it is 69%.
Regarding “422257 (antisense e[5mC]*e[5mC]*dA*d[5mC]*d[5mC]*d[5mC]*dG*d[5mC]*d[5mC]*dG*dG*d[5mC]*dT*d[5mC]*dT*eG*e[5mC]*eT*e[5mC]*eA) [compound 422257]”, the “% Inhibition (human Factor 7 mRNA levels)” value is recorded as 65%.
Regarding “422253 (antisense e[5mC]*e[5mC]*dG*d[5mC]*d[5mC]*dG*dG*d[5mC]*dT*d[5mC]*dT*dG*d[5mC]*dT*d[5mC]*eA*eT*e[5mC]*e[5mC]*e[5mC]) [compound 422253]”, the “% Inhibition (human Factor 7 mRNA levels)” value is recorded as 61%.
Still for that read-out and setting: then “422110 (antisense eA*e[5mC]*e[5mC]*e[5mC]*eG*d[5mC]*d[5mC]*dG*dG*d[5mC]*dT*d[5mC]*dT*dG*d[5mC]*eT*e[5mC]*eA*eT*e[5mC]) [compound 422110]”, with 53%.

The same data set, now with this note: oligonucleotides targeted to nucleobases 14707 to 14732 of SEQ ID NO: 1 (Table 11).
With “407642 (antisense e[5mC]*eA*eG*e[5mC]*eA*dG*d[5mC]*d[5mC]*dT*dG*dA*dG*dG*d[5mC]*d[5mC]*eA*eG*e[5mC]*eA*eG) [compound 407642]”, the “% Inhibition (human Factor 7 mRNA levels)” value was 63%.

Still in this data set, the particulars now being: oligonucleotides targeted to nucleobases 15098 to 15122 of SEQ ID NO: 1 (Table 12).
Regarding “416479 (antisense eG*eA*e[5mC]*eA*eG*d[5mC]*dA*d[5mC]*dA*d[5mC]*dA*dT*dG*dG*dA*eG*eT*e[5mC]*eA*eG) [compound 416479]”, the “% Inhibition (human Factor 7 mRNA levels)” value is 47%.
Same read-out and setting: then “422211 (antisense eA*e[5mC]*eA*dG*d[5mC]*dA*d[5mC]*dA*d[5mC]*dA*dT*dG*dG*dA*dG*dT*d[5mC]*eA*eG*e[5mC]) [compound 422211]”, with 42%; and “422212 (antisense eG*eA*e[5mC]*dA*dG*d[5mC]*dA*d[5mC]*dA*d[5mC]*dA*dT*dG*dG*dA*dG*dT*e[5mC]*eA*eG) [compound 422212]”, with 30%; and “422137 (antisense eA*e[5mC]*eA*eG*e[5mC]*dA*d[5mC]*dA*d[5mC]*dA*dT*dG*dG*dA*dG*eT*e[5mC]*eA*eG*e[5mC]) [compound 422137]”, with 45%.

(Values after US9029337B2, “Modulation of factor 7 expression” (Isis Pharmaceuticals, Inc., priority 2007, dated 2015).)
